# Source: PubChem BioAssay (NCI)
# “And” between values parts separate entries of the source, which are not always exact repeats. Equal entries are not always repeated.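 Interpolation was linear, between the two tested concentrations surrounding the appropriate level; five concentrations were tested over 48 hours in 96-well plates. At the GI50, growth is halved. Definition used: TGI = concentration required for complete inhibition of growth.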
# Legend:
# Assay in all cases: NCI tumour cell line growth inhibition, 48 h
# DU-145 prostate = tested on: DU-145 prostate
# TK-10 renal = tested on: TK-10 renal
# SNB-19 CNS = tested on: SNB-19 CNS
# CAKI-1 renal = tested on: CAKI-1 renal
# MDA-MB-435 = tested on: MDA-MB-435
# SF-539 CNS = tested on: SF-539 CNS
# HCT-116 colon = tested on: HCT-116 colon
# BT-549 breast = tested on: BT-549 breast
# MALME-3M melanoma = tested on: MALME-3M melanoma
# SK-MEL-28 melanoma = tested on: SK-MEL-28 melanoma
SMILES,TGI (DU-145 prostate),TGI (TK-10 renal),TGI (SNB-19 CNS),TGI (CAKI-1 renal),TGI (MDA-MB-435),TGI (SF-539 CNS),TGI (HCT-116 colon),TGI (BT-549 breast),TGI (MALME-3M melanoma),TGI (SK-MEL-28 melanoma),GI50 (SNB-19 CNS),GI50 (SK-MEL-28 melanoma),GI50 (HCT-116 colon),GI50 (MALME-3M melanoma),GI50 (SF-539 CNS)
COc1nncc2[nH]c(-c3ccccc3)cc12,> 100 µM,> 100 µM,> 100 µM,> 100 µM,> 100 µM,> 100 µM,> 100 µM,> 100 µM,> 100 µM,–,–,–,–,–,–
C/C(=C\CBr)CCC(Br)C(C)(C)Br (centres undefined),> 100 µM,> 100 µM,> 100 µM,–,> 100 µM,> 100 µM,> 100 µM,> 100 µM,> 100 µM,> 100 µM,–,–,–,–,–
Cn1c2ccc3cc2c(=S)c2cc(ccc21)OCCOCCOCCOCCOCCOCCO3,> 10 µM,> 10 µM,> 10 µM,> 10 µM,–,> 10 µM,> 10 µM,> 10 µM,> 10 µM,> 10 µM,–,–,–,–,–
O=C(OCc1ccccc1)N1CCNCCN(C(=O)OCc2ccccc2)CCNCC1,> 100 µM,> 100 µM,> 100 µM,55.1 µM,64.6 µM,29.2 µM,42.9 µM,> 100 µM,–,45.3 µM,–,–,–,–,–
C[C@]12CC[C@H](O)CC1=CC[C@@H]1[C@@H]2CC[C@]2(C)C(=N/N)/C(=N\O)C[C@@H]12,> 100 µM,> 100 µM,> 100 µM,> 100 µM,5 µM,> 100 µM,> 100 µM,> 100 µM,> 100 µM,–,–,–,–,–,–
CCOC(=O)c1c(CN2CCCC2)n(-c2ccccc2)c2cc(Br)c(O)cc12,39.5 µM,48 µM,33.3 µM,40.8 µM,33.2 µM,–,30.3 µM,55.8 µM,35.5 µM,29.7 µM,–,–,–,–,–
O=C(c1ccccn1)C1(N2CCCCC2)CCCCC1,> 100 µM,> 100 µM,> 100 µM,> 100 µM,> 100 µM,> 100 µM,> 100 µM,> 100 µM,–,> 100 µM,–,–,–,–,–
O=c1[nH]c(=S)[nH]c2c1C(c1ccc([N+](=O)[O-])cc1)c1c([nH]c(=S)[nH]c1=O)O2,> 100 µM,> 100 µM,> 100 µM,> 100 µM,> 100 µM,–,> 100 µM,> 100 µM,–,> 100 µM,–,–,–,–,–
c1ccc2c3[nH]c(c2c1)=Nc1ccc(cc1)-c1nc2cc(ccc2o1)N=c1[nH]c(c2ccccc12)=Nc1ccc2nc(oc2c1)-c1ccc(cc1)N=3,> 100 µM,–,> 100 µM,> 100 µM,> 100 µM,–,> 100 µM,> 100 µM,–,> 100 µM,–,–,–,–,–
N[C@@H](CCC(=O)NCP(=O)(O)O)C(=O)O,–,> 100 µM,> 100 µM,–,> 100 µM,> 100 µM,> 100 µM,> 100 µM,> 100 µM,> 100 µM,–,–,–,–,–
O=C1C=C[C@@H](COC2OC(CO)C(O)C(O)C2O)O1 (some centres undefined),–,–,53.2 µM,40 µM,–,17.6 µM and 18.4 µM,10.5 µM and > 100 µM,–,31.9 µM,26.1 µM and > 100 µM,20.6 µM,11.8 µM,2.63 µM,12.5 µM,–
COc1ccc(N=NC(=Nc2ccccc2)c2ccc(N(CCC#N)CCC#N)cc2)cc1,> 100 µM,> 100 µM,> 100 µM,> 100 µM,> 100 µM,> 100 µM,> 100 µM,> 100 µM,–,> 100 µM,–,–,–,–,–
CC(=O)/C=C/C1=C(C)CCCC1(C)CC(C)C (centres undefined),> 100 µM,> 100 µM,> 100 µM,> 100 µM,> 100 µM,> 100 µM,77.8 µM,–,89.1 µM,> 100 µM,–,–,–,–,–
Nc1ncnc2c1[nH]c(=O)n2-c1ccccc1,–,> 100 µM,> 100 µM,> 100 µM,> 100 µM,> 100 µM,> 100 µM,> 100 µM,> 100 µM,> 100 µM,–,–,–,–,–
N#CC(Cc1ccccc1)N(CCC1=CCCCC1)C(c1ccccc1)c1ccccc1 (centres undefined),> 100 µM,> 100 µM,> 100 µM,> 100 µM,> 100 µM,–,> 100 µM,> 100 µM,> 100 µM,> 100 µM,–,–,–,–,–
COc1ccc2[nH]cc(/C=C(/C)c3ccncc3)c2c1,–,–,> 100 µM,> 100 µM,–,19.9 µM and > 100 µM,16.8 µM and 20.5 µM,–,21.9 µM,> 100 µM,15.5 µM,9.02 µM,3.67 µM,3.14 µM,4.46 µM
O=C(Cc1ccc(O)c(O)c1)NCc1c[nH]c2ccccc12,> 100 µM,69.5 µM,> 100 µM,> 100 µM,–,> 100 µM,> 100 µM,> 100 µM,76.5 µM,> 100 µM,–,–,–,–,–
N#C/C(=C1/Sc2c(nc[nH]c2=O)N1c1ccccc1)c1nc2ccccc2[nH]1,–,> 100 µM,> 100 µM,> 100 µM,–,> 100 µM,> 100 µM,–,> 100 µM,> 100 µM,–,–,–,–,–
O=C(NCc1ccccc1)c1n[nH][nH]c1=O,> 100 µM,> 100 µM,> 100 µM,> 100 µM,> 100 µM,–,> 100 µM,> 100 µM,> 100 µM,> 100 µM,–,–,–,–,–
C=C1CCN2CC[C@@H](OC(=O)/C(C)=C\C)[C@@H]12,> 100 µM,> 100 µM,> 100 µM,> 100 µM,> 100 µM,> 100 µM,> 100 µM,–,> 100 µM,> 100 µM,–,–,–,–,–
CC(=O)Nn1c(=S)[nH]c2ccccc21,> 100 µM,> 100 µM,> 100 µM,> 100 µM,> 100 µM,–,> 100 µM,> 100 µM,> 100 µM,> 100 µM,–,–,–,–,–
COc1cc(S(=O)(=O)Nc2nc(-c3ccc(N4C(=O)C(CC(=O)O)SC4c4cccs4)cc3)cs2)ccc1Cl (centres undefined),> 100 µM,> 100 µM,> 100 µM,> 100 µM,> 100 µM,> 100 µM,> 100 µM,–,72.2 µM,> 100 µM,–,–,–,–,–
CC1CN(C)c2ccccc2N=C1NN (centres undefined),> 100 µM,> 100 µM,> 100 µM,> 100 µM,> 100 µM,–,> 100 µM,> 100 µM,> 100 µM,> 100 µM,–,–,–,–,–
